Reference: EP2931723B1, “NEW BICYCLIC COMPOUNDS AND THEIR USE AS ANTIBACTERIAL AGENTS AND -LACTAMASE INHIBITORS” (Fedora Pharmaceuticals Inc., priority 2012, dated 2014)

How the values were obtained:
Experiment in all cases: MIC, antibacterial and synergistic activity
Format in all cases: cell-based
E. coli JMI 10768 [1] = details: E. coli JMI 10768 (CTX-M15 (Weak ESBL)); Meropenem + inhibitor at 4 µg/mL
P. aerug JMI 2686 [2] = details: P. aerug JMI 2686 (KPC-2 (Cpase)); substance alone
K. pneumo JMI 2697 = K. pneumo JMI 2697 (IMP-4 (Cpase))
Experimental: In the Tables 10 - 12, compounds herein disclosed were tested in combination with various antibiotics against metallo β-lactamase producing bacteria.

E. coli JMI 11103 = test system: E. coli JMI 11103
K. pneumo JMI 2674 [3] = details: K. pneumo JMI 2674 (CTX-M15 (ESBL)); substance alone
E. coli JMI 10770 [4] = details: Escherichia coli, JMI10770; E. coli JMI 10770 (CTX-M15 (Hyper ESBL)); substance alone
K.pneumo JMI 4109 [5] = details: K.pneumo JMI 4109 (SHV-1, SHV-12); substance alone
K. pneumo JMI 2673 [6] = details: K. pneumo JMI 2673 (CTX-M14 (ESBL)); substance alone
K. pneumo JMI 4106 = K. pneumo JMI 4106 (KPC-3, TEM-1, SHV-12, SHV-141)
K. pneumo JMI 4088 [7] = details: K. pneumo JMI 4088 (KPC-3 (Cpase)); substance alone
E. coli JMI 10767 [8] = details: E. coli JMI 10767 (Wt)
Experimental: (§1) In the Tables 10 - 12, compounds herein disclosed were tested in combination with various antibiotics against metallo β-lactamase producing bacteria. Table 3: Synergy of the inhibitor Ex. 1 (4 µg/mL) in combination with antibiotics

K. pneumo JMI 2674 [9] = details: K. pneumo JMI 2674 (CTX-M15 (ESBL))
In short: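 Antibacterial activity was assessed as minimum inhibitory concentrations against a β-lactamase-producing bacterial strain. Each test inhibitor was combined with an antibiotic, with the inhibitor held at a fixed 4 µg/mL, to determine whether it acted synergistically and restored the antibiotic's effect against the resistant organism.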

E. coli JMI 10770 [10] = details: E. coli JMI 10770 (CTX-M15 (Hyper ESBL))
Experimental: as §1

E. coli JMI 10768 [11] = details: E. coli JMI 10768 (CTX-M15 (Weak ESBL))
Experimental: as §1

E. coli JMI 2665 = test system: E. coli JMI 2665
Experimental: as §1

K. pneumo JMI 4088 [12] = details: K. pneumo JMI 4088 (KPC-3 (Cpase))
In short: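 The compound was tested for synergy by combining it with antibiotics and measuring minimum inhibitory concentrations against β-lactamase producing bacteria. The inhibitor was present at a fixed concentration of 4 µg/mL together with the partner antibiotic, and MIC values were recorded.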

K. pneumo JMI 2699 = K. pneumo JMI 2699 (VIM-1, CTX-M3)
In short: (§2)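 Inhibitor fixed at 4 µg/mL; various antibiotics co-tested; MBL producers; endpoint MIC.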

E. coli JMI 2671 = test system: E. coli JMI 2671
In short: as §2

P. aerug JMI 2686 [13] = details: P. aerug JMI 2686 (KPC-2 (Cpase))
In short: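 This antibacterial synergy assay measured the minimum inhibitory concentration of antibiotics combined with the disclosed inhibitor compounds. The inhibitor was held at 4 µg/mL throughout. The aim was to see whether the added compound strengthened the antibiotic's action against the tested bacteria.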

K.pneumo JMI 4109 [14] = details: K.pneumo JMI 4109 (SHV-1, SHV-12)
In short: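 Antibacterial synergy was assessed by pairing each inhibitor compound, at a constant concentration of 4 µg/mL, with β-lactam antibiotics. The combinations were run against bacterial strains that produce β-lactamases, and the readout was the minimum inhibitory concentration of the antibiotic in the presence of the inhibitor.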

K. pneumo JMI 2673 [15] = details: K. pneumo JMI 2673 (CTX-M14 (ESBL))
In short: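 Antibacterial synergy was assessed by testing a β-lactamase inhibitor compound in combination with antibiotics. The inhibitor was held at a fixed concentration of 4 µg/mL, and the minimum inhibitory concentration of the partner antibiotic was determined in its presence.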

E. coli JMI 10767 [16] = details: E. coli JMI 10767 (Wt); remark: listed apart in the source
K. pneumo JMI 2681 = K. pneumo JMI 2681 (Oxa-48 (Cpase))
[17] = Aztreonam + inhibitor at 4 µg/mL
[18] = Ceftazidime + inhibitor at 4 µg/mL
[19] = Meropenem + inhibitor at 4 µg/mL

O=C(NO[C@H]1CCNC1)[C@@H]1CC[C@@H]2CN1C(=O)N2OS(=O)(=O)O [Ex. 1, (2S,5R)-7-Oxo-N-[(3S)-pyrrolidin-3-yloxy]-6-(sulfooxy)-1,6-diazabicyclo[3.2.1]octane-2-carboxamide]
MIC Meropenem + inhibitor (E. coli JMI 10768 [1]): ≤.031 µg/mL
MIC (P. aerug JMI 2686 [2]): > 16 µg/mL
MIC Aztreonam + inhibitor (K. pneumo JMI 2697; [17]): 0.25 µg/mL
MIC Ceftazidime + inhibitor (K. pneumo JMI 2697; [18]): 16 µg/mL
MIC Meropenem + inhibitor (K. pneumo JMI 2697; [19]): >2 µg/mL
MIC (K. pneumo JMI 2697; substance alone): 16 µg/mL
MIC Aztreonam + inhibitor (E. coli JMI 11103; E. coli JMI 11103 (CTX-M15 (Intermediate ESBL)), Aztreonam + inhibitor at 4 µg/mL): ≤.062 µg/mL
MIC Ceftazidime + inhibitor (E. coli JMI 11103; E. coli JMI 11103 (CTX-M15 (Intermediate ESBL)), Ceftazidime + inhibitor at 4 µg/mL): ≤0.25 µg/mL
MIC Meropenem + inhibitor (E. coli JMI 11103; E. coli JMI 11103 (CTX-M15 (Intermediate ESBL)), Meropenem + inhibitor at 4 µg/mL): ≤.031 µg/mL
MIC (E. coli JMI 11103; Escherichia coli, JMI11103, E. coli JMI 11103 (CTX-M15 (Intermediate ESBL)), substance alone): 8 µg/mL
MIC (K. pneumo JMI 2674 [3]): > 16 µg/mL
MIC (E. coli JMI 10770 [4]): 8 µg/mL
MIC (K.pneumo JMI 4109 [5]): 4 µg/mL
MIC (K. pneumo JMI 2673 [6]): > 16 µg/mL
MIC Aztreonam + inhibitor (K. pneumo JMI 4106; [17]): 0.25 µg/mL
MIC Ceftazidime + inhibitor (K. pneumo JMI 4106; [18]): ≤0.25 µg/mL
MIC Meropenem + inhibitor (K. pneumo JMI 4106; [19]): ≤.031 µg/mL
MIC (K. pneumo JMI 4106; substance alone, read-out: MIC): 16 µg/mL
MIC (K. pneumo JMI 4088 [7]): 4 µg/mL
MIC Aztreonam + inhibitor (E. coli JMI 10767 [8]; [17]): ≤.062 µg/mL
MIC Ceftazidime + inhibitor (E. coli JMI 10767 [8]; [18]): ≤0.25 µg/mL
MIC Aztreonam + inhibitor (K. pneumo JMI 2674 [9]; [17]): ≤.062 µg/mL
MIC Ceftazidime + inhibitor (K. pneumo JMI 2674 [9]; [18]): ≤0.25 µg/mL
MIC Meropenem + inhibitor (K. pneumo JMI 2674 [9]; [19]): 0.062 µg/mL
MIC Aztreonam + inhibitor (E. coli JMI 10770 [10]; [17]): ≤.062 µg/mL
MIC Ceftazidime + inhibitor (E. coli JMI 10770 [10]; [18]): ≤0.25 µg/mL
MIC Meropenem + inhibitor (E. coli JMI 10770 [10]; [19]): ≤.031 µg/mL
MIC Aztreonam + inhibitor (E. coli JMI 10768 [11]; [17]): ≤.062 µg/mL
MIC Ceftazidime + inhibitor (E. coli JMI 10768 [11]; [18]): ≤0.25 µg/mL
MIC (E. coli JMI 10768 [11]; Escherichia coli, JMI10768, substance alone): 8 µg/mL
MIC Aztreonam + inhibitor (E. coli JMI 2665; E. coli JMI 2665 (CMY-2 (Plasmid Cpase)), Aztreonam + inhibitor at 4 µg/mL): ≤.062 µg/mL
MIC Ceftazidime + inhibitor (E. coli JMI 2665; E. coli JMI 2665 (CMY-2 (Plasmid Cpase)), Ceftazidime + inhibitor at 4 µg/mL): ≤0.25 µg/mL
MIC Meropenem + inhibitor (E. coli JMI 2665; E. coli JMI 2665 (CMY-2 (Plasmid Cpase)), Meropenem + inhibitor at 4 µg/mL): ≤.031 µg/mL
MIC (E. coli JMI 2665; Escherichia coli, JMI2665): 4 µg/mL
MIC Aztreonam + inhibitor (K. pneumo JMI 4088 [12]; [17]): ≤.062 µg/mL
MIC Ceftazidime + inhibitor (K. pneumo JMI 4088 [12]; [18]): ≤0.25 µg/mL
MIC Meropenem + inhibitor (K. pneumo JMI 4088 [12]; [19]): 0.062 µg/mL
MIC Aztreonam + inhibitor (K. pneumo JMI 2699; [17]): 0.5 µg/mL
MIC Ceftazidime + inhibitor (K. pneumo JMI 2699; [18]): 16 µg/mL
MIC Meropenem + inhibitor (K. pneumo JMI 2699; [19]): 2 µg/mL
MIC (K. pneumo JMI 2699; substance alone, read-out: MIC): 8 µg/mL
MIC Aztreonam + inhibitor (E. coli JMI 2671; E. coli JMI 2671 (VIM-19 (Cpase)), Aztreonam + inhibitor at 4 µg/mL): ≤.062 µg/mL
MIC Ceftazidime + inhibitor (E. coli JMI 2671; E. coli JMI 2671 (VIM-19 (Cpase)), Ceftazidime + inhibitor at 4 µg/mL): 2 µg/mL
MIC Meropenem + inhibitor (E. coli JMI 2671; E. coli JMI 2671 (VIM-19 (Cpase)), Meropenem + inhibitor at 4 µg/mL): 2 µg/mL
MIC (E. coli JMI 2671; Escherichia coli, JMI2671, E. coli JMI 2671 (VIM-19 (Cpase)), substance alone): 4 µg/mL
MIC Aztreonam + inhibitor (P. aerug JMI 2686 [13]; [17]): >4 µg/mL
MIC Ceftazidime + inhibitor (P. aerug JMI 2686 [13]; [18]): 16 µg/mL
MIC Meropenem + inhibitor (P. aerug JMI 2686 [13]; [19]): >2 µg/mL
MIC Aztreonam + inhibitor (K.pneumo JMI 4109 [14]; [17]): ≤.062 µg/mL
MIC Ceftazidime + inhibitor (K.pneumo JMI 4109 [14]; [18]): ≤0.25 µg/mL
MIC Meropenem + inhibitor (K.pneumo JMI 4109 [14]; [19]): ≤.031 µg/mL
MIC Aztreonam + inhibitor (K. pneumo JMI 2673 [15]; [17]): ≤.062 µg/mL
MIC Ceftazidime + inhibitor (K. pneumo JMI 2673 [15]; [18]): ≤0.25 µg/mL
MIC Meropenem + inhibitor (K. pneumo JMI 2673 [15]; [19]): ≤.031 µg/mL
MIC Meropenem + inhibitor (E. coli JMI 10767 [16]; [19]): ≤.031 µg/mL
MIC (E. coli JMI 10767 [16]; Escherichia coli, JMI10767, substance alone): 8 µg/mL
MIC Aztreonam + inhibitor (K. pneumo JMI 2681; [17]): 4 µg/mL
MIC Ceftazidime + inhibitor (K. pneumo JMI 2681; [18]): 4 µg/mL
MIC Meropenem + inhibitor (K. pneumo JMI 2681; [19]): >2 µg/mL
MIC (K. pneumo JMI 2681; substance alone, read-out: MIC): > 16 µg/mL
